Source: publication PMC6349357, “Computational and experimental analysis of bioactive peptide linear motifs in the integrin adhesome” (PLoS ONE, 2019)
No end group written: not given here. *: point of attachment. Palmitoyl = CCCCCCCCCCCCCCCC(=O)*

T1: vinculin (Homo sapiens, UniProt P18206)
T1 sequence (P18206 1-1066 isoform P18206-2): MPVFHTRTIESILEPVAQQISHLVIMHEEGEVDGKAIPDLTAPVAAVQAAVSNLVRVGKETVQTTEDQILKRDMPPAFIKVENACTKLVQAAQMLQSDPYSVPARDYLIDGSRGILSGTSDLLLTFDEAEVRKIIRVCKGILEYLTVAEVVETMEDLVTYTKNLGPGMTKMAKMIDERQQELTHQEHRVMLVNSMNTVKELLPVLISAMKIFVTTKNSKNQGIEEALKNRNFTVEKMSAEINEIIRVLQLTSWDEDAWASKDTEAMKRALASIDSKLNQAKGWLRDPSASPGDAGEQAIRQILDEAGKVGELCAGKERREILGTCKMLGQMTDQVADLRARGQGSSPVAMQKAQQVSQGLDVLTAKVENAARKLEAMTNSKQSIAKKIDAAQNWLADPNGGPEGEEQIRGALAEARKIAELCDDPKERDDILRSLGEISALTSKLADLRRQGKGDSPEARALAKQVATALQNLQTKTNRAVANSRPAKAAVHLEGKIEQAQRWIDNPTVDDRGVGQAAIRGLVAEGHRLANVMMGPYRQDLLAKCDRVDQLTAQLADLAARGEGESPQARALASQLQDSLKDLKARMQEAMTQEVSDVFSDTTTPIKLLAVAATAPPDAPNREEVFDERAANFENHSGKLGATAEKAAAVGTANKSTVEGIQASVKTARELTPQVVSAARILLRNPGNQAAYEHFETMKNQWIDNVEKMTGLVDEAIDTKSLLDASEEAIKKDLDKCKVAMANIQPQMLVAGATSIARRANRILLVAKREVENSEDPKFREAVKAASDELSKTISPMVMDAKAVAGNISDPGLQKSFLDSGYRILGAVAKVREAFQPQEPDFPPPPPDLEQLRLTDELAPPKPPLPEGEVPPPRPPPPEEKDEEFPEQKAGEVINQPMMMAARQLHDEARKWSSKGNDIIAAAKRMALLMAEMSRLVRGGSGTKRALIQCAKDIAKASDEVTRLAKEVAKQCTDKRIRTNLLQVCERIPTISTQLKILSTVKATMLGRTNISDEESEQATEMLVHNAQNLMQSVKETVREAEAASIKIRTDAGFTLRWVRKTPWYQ


Assays:
[1] = tested on: resting platelets; experiment: Platelet aggregation induced by peptide in resting washed platelets (activation); format: cell-based, human (healthy volunteers); conditions: peptide 50 µM; for Platelet activation, donor 14 06 13 / Platelet activation, donor 18 06 13 / Platelet activation, donor 22 08 13 DONOR1 / Platelet activation, donor 22 08 13 DONOR2: Fig S10 sheet, unit assumed; for Platelet activation, donor 14 06 13: replicate 14_06_13; for Platelet activation, donor 18 06 13: replicate 18_06_13; for Platelet activation, donor 22 08 13 DONOR1: replicate 22_08_13_DONOR1; for Platelet activation, donor 22 08 13 DONOR2: replicate 22_08_13_DONOR2
In short: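 Aggregation was read by optical density at 37°C under 1100 rpm stirring. Samples were 3x10^5/μl washed human platelets, rested 45 min and supplemented with 1.8 mM calcium chloride. Peptide went in at 2 min, followed 6 min later by TRAP at an experiment-dependent concentration, with 7 min further recording.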

[2] = biological target: T1, vinculin; experiment: Surface plasmon resonance, peptides injected over immobilised vinculin; format: binding; conditions: SPR, CM5 chip, serial peptide injections at 1 mM; rank order
Method: The SPR experiments were performed using a Biacore T200 system (GE Healthcare), and Series S CM5 or SA chips with 4 flow cells each.
Lyophilized vinculin was dissolved in flow buffer to a concentration of 1 mg/ml and covalently coupled onto the carboxymethylated dextran matrix of CM5 sensor chips using standard amine coupling. The flow buffer contained 10 mM HEPES, 150 mM NaCl, 3 mM EDTA, 0.05% surfactant P20. The chip was activated with an injection of 70 μl of a mixture of 0.05 M EDC and 0.2 M NHS, followed by the injection of approximately 70 μl of 10 μg/ml vinculin in 10 mM sodium acetate, pH 5.0 in one flow cell to yield a response of 7200 RU. Remaining reactive groups in the channel were blocked with an injection of 100 μl ethanolamine. Binding experiments were performed by injecting peptides for 120 s at a flow rate of 20 μl/min, at a concentration of 1 mM in the flow buffer over the chip surface to monitor association kinetics, followed by buffer flow for 120 s to measure dissociation kinetics. Between experiments, the surface was regenerated by injecting a 60 second pulse of 10 mM glycine pH 2.

[3] = biological target: vinculin (UniProt P18206)
[4] = biological target: Syntenin-1 (UniProt O00560)
Syntenin-1, sequence (O00560 whole entry): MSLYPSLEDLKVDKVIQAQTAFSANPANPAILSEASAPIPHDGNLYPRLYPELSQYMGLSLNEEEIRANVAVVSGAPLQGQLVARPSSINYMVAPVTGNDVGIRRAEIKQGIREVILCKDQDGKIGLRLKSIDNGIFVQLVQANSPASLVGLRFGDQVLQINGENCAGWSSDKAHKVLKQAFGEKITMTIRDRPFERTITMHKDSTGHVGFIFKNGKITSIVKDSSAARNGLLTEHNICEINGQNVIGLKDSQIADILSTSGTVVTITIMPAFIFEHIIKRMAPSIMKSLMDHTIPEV

Row | Inhibition: platelet aggregation induced by 4μM TRAP in platelets pre-incubated with peptide (20μM) [4] | Molecule | Platelet activation, donor 14 06 13 [1] [%] | Platelet activation, donor 18 06 13 [1] [%] | Platelet activation, donor 22 08 13 DONOR1 [1] [%] | Platelet activation, donor 22 08 13 DONOR2 [1] [%] | Platelet activating effect compared with N-terminal tat attachment ([1]; S10 Fig, in words) | Relative binding affinity to immobilised vinculin [2] | Activation: platelet aggregation induced in resting platelets after 6 minutes incubation with peptides (50μM) [3]
1 |  | ACTN1_VBS-tat: ACTN1 vinculin-binding peptide with the tat peptide at the C-terminus (WEQLLTTIARTINEVENQIGRKKRRQRRRPPQ) | 45 | 11 | 32 | 4 | weaker platelet activating effect | tat-ACTN1_VBS > TLN1_VBS-tat > ACTN1_VBS-tat > ACTN1_VBS | 
2 |  | ACTN1_VBS: ACTN1_VBS peptide lacking the tat (WEQLLTTIARTINEVENQI) | 35 | 11 | 7 | 11 |  | tat-ACTN1_VBS > TLN1_VBS-tat > ACTN1_VBS-tat > ACTN1_VBS | 
3 |  | tat-ACTN1_VBS (peptide) |  |  |  |  |  |  | 66
4 | 34 | Palmitoyl-APTNEFYA [pal-SDC4_tail] |  |  |  |  |  |  | 
